Values quoted from earlier work in patent US8969340B2, “Methods for treating chronic pelvic pain syndrome” (Northwestern University, priority 2004, dated 2015).
pKi: −log10 of the molar value. Read-outs that look alike come from different tables or passages of the source.

Target: T1, CCR-2 receptor (Homo sapiens, UniProt P41597)
T1 sequence (P41597 1-360 isoform P41597-2): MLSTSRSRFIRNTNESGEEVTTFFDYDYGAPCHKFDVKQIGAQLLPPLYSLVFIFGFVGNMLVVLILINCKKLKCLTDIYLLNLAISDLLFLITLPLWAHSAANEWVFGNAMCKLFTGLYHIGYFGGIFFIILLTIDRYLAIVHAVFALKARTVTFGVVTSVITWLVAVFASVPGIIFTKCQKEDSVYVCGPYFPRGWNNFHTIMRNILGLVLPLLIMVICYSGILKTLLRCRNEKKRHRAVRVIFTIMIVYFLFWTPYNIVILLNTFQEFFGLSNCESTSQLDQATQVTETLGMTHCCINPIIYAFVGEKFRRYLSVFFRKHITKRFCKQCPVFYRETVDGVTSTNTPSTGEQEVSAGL
Conditions: indolopiperidines

| pKi (variation of X and R) | pKi (variation of chain length n) | SMILES |
| --- | --- | --- |
| < 5.00 | – | O=S(=O)(NCCCCCN1CCC(c2c[nH]c3ccccc23)CC1)c1ccc(Cl)c(Cl)c1 [compound 10] |
| – | < 5.00 | O=C(/C=C/c1ccc(Cl)c(Cl)c1)NCCN1CCC(c2c[nH]c3ccccc23)CC1 [compound 30] |
